The values that follow come from patent publication US20260365641A1, “Aromatic Acetylene Derivative, Preparation Method Therefor, And Use Thereof” (Zhejiang Hisun Pharmaceutical Co., Ltd., priority 2022, published 2026).

SMILES strings stand for the structures. In brackets after ≈: the same amount, converted by molar mass.

The term IC50 denotes the concentration at which inhibition is half-maximal. One may read the MIC as the lowest concentration that inhibits growth of the organism.

Assay [1] concerns the target T1, recombinant Pseudomonas aeruginosa LpxC (Pseudomonas aeruginosa, UniProt P47205).
T1 construct: purchased Signalway Antibody AP74647-2
T1 sequence (P47205 1-303): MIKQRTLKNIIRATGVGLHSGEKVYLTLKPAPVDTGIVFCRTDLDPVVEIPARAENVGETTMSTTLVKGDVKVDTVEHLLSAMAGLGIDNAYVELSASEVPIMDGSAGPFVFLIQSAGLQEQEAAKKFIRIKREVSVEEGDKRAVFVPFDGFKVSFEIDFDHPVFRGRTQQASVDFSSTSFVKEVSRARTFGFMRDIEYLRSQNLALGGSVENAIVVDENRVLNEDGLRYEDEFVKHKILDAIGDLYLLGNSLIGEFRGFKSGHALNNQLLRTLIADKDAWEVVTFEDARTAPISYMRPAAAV
Kind of assay: Inhibition of enzymatic activity of recombinant Pseudomonas aeruginosa LpxC in vitro. Particulars: 5 nM LpxC; substrate UDP-3-O—(R-3-hydroxydecanoyl)-GlcNAc; 25 °C, 120 minutes; fluorescamine readout. It is filed as biochemical. The method in brief:
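LpxC (5 nM final) was incubated with compound (8-point 4-fold series, 0.61–10000 nM) and […] UDP-3-O-(R-3-hydroxydecanoyl)-GlcNAc for 120 min at 25 °C. Product was detected with fluorescamine (Ex 390/Em 495 nm) after a pH 8.0 phosphate stop. IC50 was fitted by nonlinear regression against 0.1% DMSO control.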

For the next assay, the system named is E. coli ATCC 25922. Briefly: Antibacterial activity, minimum inhibitory concentration (MIC) in vitro, broth dilution. It is filed as cell-based. Particulars: Escherichia coli, ATCC25922, 5×10^5 cfu/mL, 35 °C, 18-24 hours. A digest of the protocol: (§1)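 Broth microdilution per CLSI in CAMHB, inoculum 5×10^5 cfu/mL. Compound added from 100× DMSO working stocks across 11 two-fold dilutions, final 64 to 0.06 μg/mL. Incubated 18-24 h at 35 °C.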

The test system of the next assay is K. pneumoniae ATCC13883. The assay is described as above. It is filed as cell-based. Particulars: Klebsiella pneumoniae, 5×10^5 cfu/mL, 35 °C, 18-24 hours. A digest of the protocol:
as §1

Another assay relates to K. pneumoniae ATCC51504. Described as above. Particulars: Klebsiella pneumoniae, 5×10^5 cfu/mL, 35 °C, 18-24 hours. It is filed as cell-based. A digest of the protocol: as §1

As to `C[C@H](O)c1nccn1Cc1cc(-c2ccc(C#CC3CC4(C3)CN(Cc3ncco3)C4)cc2)on1` [Example 52, (S)-1-(1-((5-(4-((2-(oxazol-2-ylmethyl)-2-azaspiro[3.3]heptan-6-yl)ethynyl)phenyl)isoxazol-3-yl)methyl)-1H-imidazol-2-yl)ethan-1-ol], the IC50 in assay [1] was 13.9 nM. Besides, the MIC against E. coli ATCC 25922 turned out to be 1 µg/mL (≈ 2.13 µM); against K. pneumoniae ATCC13883, 2 µg/mL (≈ 4.26 µM); against K. pneumoniae ATCC51504, 1 µg/mL (≈ 2.13 µM).
On to `C[C@H](O)c1nccn1Cc1cc(-c2ccc(C#CC3CC4(C3)CN(C(=O)CO)C4)cc2)on1` [Example 26, (S)-2-hydroxy-1-(6-((4-(3-((2-(1-hydroxyethyl)-1H-imidazol-1-yl)methyl)isoxazol-5-yl)phenyl)ethynyl)-2-azaspiro[3.3]heptan-2-yl)ethan-1-one], for which the IC50 in assay [1] turned out to be 11.3 nM. Further, the minimal inhibitory concentration (MIC) in the assay on E. coli ATCC 25922 and in the assay with K. pneumoniae ATCC13883 was 2 µg/mL (≈ 4.48 µM) each time.
For `C[C@H](O)c1nccn1Cc1cc(-c2ccc(C#CC3CC4(C3)CN(CC(N)=O)C4)cc2)on1` [Example 20, (S)-2-(6-((4-(3-((2-(1-hydroxyethyl)-1H-imidazol-1-yl)methyl)isoxazol-5-yl)phenyl)ethynyl)-2-azaspiro[3.3]heptan-2-yl)acetamide], the IC50 in assay [1] came to 6.77 nM. Further, the MIC against E. coli ATCC 25922 was 2 µg/mL (≈ 4.49 µM); in the assay on K. pneumoniae ATCC13883, 4 µg/mL (≈ 8.98 µM).
For `C[C@H](O)c1nccn1Cc1cc(-c2ccc(C#CC3=CCN(Cc4ccc(C(=O)O)cc4)CC3)cc2)on1` [Example 34, (S)-4-((4-((4-(3-((2-(1-hydroxyethyl)-1H-imidazol-1-yl)methyl)isoxazol-5-yl)phenyl)ethynyl)-3,6-dihydropyridin-1(2H)-yl)methyl)benzoic acid] the same measures were 26.7 nM, 2 µg/mL (≈ 3.93 µM) and 4 µg/mL (≈ 7.87 µM).
For `C[C@H](O)c1nccn1Cc1cc(-c2ccc(C#CC3CC4(CCN(Cc5ccn[nH]5)CC4)C3)cc2)on1` [Example 25, (S)-1-(1-((5-(4-((7-((1H-pyrazol-5-yl)methyl)-7-azaspiro[3.5]nonan-2-yl)ethynyl)phenyl)isoxazol-3-yl)methyl)-1H-imidazol-2-yl)ethan-1-ol] the same measures were 7.28 nM, 2 µg/mL (≈ 4.03 µM) and 4 µg/mL (≈ 8.05 µM).
The like results for `C[C@H](O)c1nccn1Cc1cc(-c2ccc(C#CC3CC4(CCN(C(=O)CO)CC4)C3)cc2)on1` [Example 12, (S)-2-hydroxy-1-(2-((4-(3-((2-(1-hydroxyethyl)-1H-imidazol-1-yl)methyl)isoxazol-5-yl)phenyl)ethynyl)-7-azaspiro[3.5]nonan-7-yl)ethan-1-one] were, in that order, 4.06 nM, 2 µg/mL (≈ 4.21 µM) and 4 µg/mL (≈ 8.43 µM).
Consider `C[C@H](O)c1nccn1Cc1cc(-c2ccc(C#CC3CC4(C3)CN(C=O)C4)cc2)on1` [Example 22, (S)-6-((4-(3-((2-(1-hydroxyethyl)-1H-imidazol-1-yl)methyl)isoxazol-5-yl)phenyl)ethynyl)-2-azaspiro[3.3]heptane-2-carbaldehyde], for which, in assay [1], the half-inhibitory concentration (IC50) came out at 6.54 nM. Also, the figures for the MIC with E. coli ATCC 25922 and with K. pneumoniae ATCC13883 were 1 µg/mL (≈ 2.4 µM) and 4 µg/mL (≈ 9.6 µM), respectively.
`C[C@H](O)c1nccn1Cc1cc(-c2ccc(C#CC3CC4(C3)CN(CCn3cncn3)C4)cc2)on1` [Example 53, (S)-1-(1-((5-(4-((2-(2-(1H-1,2,4-triazol-1-yl)ethyl)-2-azaspiro[3.3]heptan-6-yl)ethynyl)phenyl)isoxazol-3-yl)methyl)-1H-imidazol-2-yl)ethan-1-ol]: the minimum inhibitory concentration (MIC) with E. coli ATCC 25922 was determined as 2 µg/mL (≈ 4.14 µM); in the assay with K. pneumoniae ATCC13883, 8 µg/mL (≈ 16.5 µM); with K. pneumoniae ATCC51504 it was 2 µg/mL (≈ 4.14 µM).
On to `C[C@H](O)c1nccn1Cc1cc(-c2ccc(C#CC3CC4(CCN(C=O)CC4)C3)cc2)on1` [Example 17, (S)-2-((4-(3-((2-(1-hydroxyethyl)-1H-imidazol-1-yl)methyl)isoxazol-5-yl)phenyl)ethynyl)-7-azaspiro[3.5]nonane-7-carbaldehyde], for which the half-maximal inhibitory concentration (IC50) in assay [1] was 8.32 nM. The results for the minimum inhibitory concentration (MIC) against E. coli ATCC 25922 and against K. pneumoniae ATCC13883 were 1 µg/mL (≈ 2.25 µM) and 2 µg/mL (≈ 4.5 µM), respectively.
Turning to `C[C@H](O)c1nccn1Cc1cc(-c2ccc(C#CC3CC4(C3)CN(C(N)=O)C4)cc2)on1` [Example 21, (S)-6-((4-(3-((2-(1-hydroxyethyl)-1H-imidazol-1-yl)methyl)isoxazol-5-yl)phenyl)ethynyl)-2-azaspiro[3.3]heptane-2-carboxamide], in assay [1], the half-maximal inhibitory concentration (IC50) was 5.11 nM. Besides, the MIC with E. coli ATCC 25922 amounted to 2 µg/mL (≈ 4.64 µM); in the assay on K. pneumoniae ATCC13883 it was 4 µg/mL (≈ 9.27 µM).
`C[C@H](O)c1nccn1Cc1cc(-c2ccc(C#CC3CC4(CCN(C(=O)CC#N)CC4)C3)cc2)on1` [Example 29, (S)-3-(2-((4-(3-((2-(1-hydroxyethyl)-1H-imidazol-1-yl)methyl)isoxazol-5-yl)phenyl)ethynyl)-7-azaspiro[3.5]nonan-7-yl)-3-oxopropanenitrile]: the concentration for half-maximal inhibition (IC50) in assay [1] came to 6.17 nM. Moreover, the minimal inhibitory concentration (MIC) was found to be 2 µg/mL (≈ 4.14 µM) in the assay on E. coli ATCC 25922 and 4 µg/mL (≈ 8.27 µM) in the assay with K. pneumoniae ATCC13883.
